Data reported in ChEMBL document CHEMBL4033735, “A potent and selective natriuretic peptide receptor-3 blocker 11-mer peptide created by hybridization of musclin and atrial natriuretic peptide” (Bioorg Med Chem Lett, 2017).
Calls of active or inactive are those of the source. The rule behind the calls is not given here. Square brackets hold non-standard residues; d marks the D form. Peptide text beside a SMILES is read from it. Cha = N[C@@H](CC1CCCCC1)C(=O)O

Tests used:
[1] = target: T1, Atrial natriuretic peptide receptor 1 (Homo sapiens, UniProt P16066); assay: Displacement of [125I]-human ANP from human NPR-1 incubated for 2 hrs by top count method
T1 sequence (P16066 whole entry): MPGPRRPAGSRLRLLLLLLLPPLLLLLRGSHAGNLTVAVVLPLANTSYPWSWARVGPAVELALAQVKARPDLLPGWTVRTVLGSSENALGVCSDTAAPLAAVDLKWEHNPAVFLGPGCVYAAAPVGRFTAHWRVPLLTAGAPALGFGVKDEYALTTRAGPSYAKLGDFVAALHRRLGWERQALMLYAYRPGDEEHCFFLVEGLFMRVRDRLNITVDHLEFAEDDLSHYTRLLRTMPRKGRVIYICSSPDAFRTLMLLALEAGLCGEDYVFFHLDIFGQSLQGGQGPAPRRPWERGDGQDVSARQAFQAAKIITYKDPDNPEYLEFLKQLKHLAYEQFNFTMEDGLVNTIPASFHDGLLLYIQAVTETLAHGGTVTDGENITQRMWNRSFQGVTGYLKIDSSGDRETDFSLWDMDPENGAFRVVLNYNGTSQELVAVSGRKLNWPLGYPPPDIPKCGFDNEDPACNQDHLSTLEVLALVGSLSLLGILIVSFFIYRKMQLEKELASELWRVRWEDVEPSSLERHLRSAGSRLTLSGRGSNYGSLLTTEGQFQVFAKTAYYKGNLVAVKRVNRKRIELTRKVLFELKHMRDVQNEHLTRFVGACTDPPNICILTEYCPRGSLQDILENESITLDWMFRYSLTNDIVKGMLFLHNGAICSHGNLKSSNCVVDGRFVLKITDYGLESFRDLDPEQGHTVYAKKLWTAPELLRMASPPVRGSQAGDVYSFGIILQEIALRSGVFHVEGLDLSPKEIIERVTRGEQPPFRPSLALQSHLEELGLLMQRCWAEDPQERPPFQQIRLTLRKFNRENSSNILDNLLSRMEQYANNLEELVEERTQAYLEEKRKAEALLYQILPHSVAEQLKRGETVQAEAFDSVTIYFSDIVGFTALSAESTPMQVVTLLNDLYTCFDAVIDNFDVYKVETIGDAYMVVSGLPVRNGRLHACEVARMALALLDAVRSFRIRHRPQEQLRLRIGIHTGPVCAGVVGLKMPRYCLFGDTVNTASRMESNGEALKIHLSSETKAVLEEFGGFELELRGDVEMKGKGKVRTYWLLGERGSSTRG

[2] = target: T2, Atrial natriuretic peptide receptor 3 (Homo sapiens, UniProt P17342); assay: Displacement of [125I]-human ANP from His-tagged and Fc fragment containing human NPR-3 extracellular domain expressed in FreeStyle 293 cells incubated for 2 hrs by top count method; assay type: cell-based
T2 sequence (P17342 whole entry): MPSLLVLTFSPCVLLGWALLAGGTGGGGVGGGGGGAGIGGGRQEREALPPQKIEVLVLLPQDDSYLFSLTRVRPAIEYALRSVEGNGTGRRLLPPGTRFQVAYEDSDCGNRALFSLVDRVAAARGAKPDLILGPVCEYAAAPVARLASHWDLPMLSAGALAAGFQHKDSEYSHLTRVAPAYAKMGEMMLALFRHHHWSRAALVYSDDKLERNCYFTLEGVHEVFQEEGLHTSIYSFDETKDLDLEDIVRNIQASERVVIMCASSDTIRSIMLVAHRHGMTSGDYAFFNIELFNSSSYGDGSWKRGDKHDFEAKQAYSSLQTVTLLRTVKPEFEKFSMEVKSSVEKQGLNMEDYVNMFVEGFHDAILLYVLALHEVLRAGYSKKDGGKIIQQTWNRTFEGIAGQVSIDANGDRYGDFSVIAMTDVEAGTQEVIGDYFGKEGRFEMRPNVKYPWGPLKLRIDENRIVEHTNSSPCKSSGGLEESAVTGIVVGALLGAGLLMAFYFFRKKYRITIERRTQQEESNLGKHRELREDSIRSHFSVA

[3] = Stability in C57BL/6J mouse serum assessed as residual parent compound remaining at 1 mM after 2 hrs at 37 degC by HPLC method; assay type: ADME, cell-free; conditions: read-out: Stability
[4] = Stability in C57BL/6J mouse serum assessed as residual parent compound remaining at 1 mM after 4 hrs at 37 degC by HPLC method; assay type: ADME, cell-free; conditions: read-out: Stability
Serum = assay: Stability in C57BL/6J mouse serum at 1 mM up to 4 hrs at 37 degC by HPLC method; assay type: ADME, cell-free; conditions: 1000 µM
[5] = Stability in C57BL/6J mouse serum assessed as residual parent compound remaining at 1 mM after 30 mins at 37 degC by HPLC method; assay type: ADME, cell-free; conditions: read-out: Stability
[6] = Stability in C57BL/6J mouse serum assessed as residual parent compound remaining at 1 mM after 60 mins at 37 degC by HPLC method; assay type: ADME, cell-free; conditions: read-out: Stability
[7] = Stability in 10% C57BL/6J mouse serum/phosphate-buffered saline assessed as residual parent compound remaining at 1 mM after 30 mins at 37 degC by HPLC method; assay type: ADME, cell-free; conditions: 10% mouse serum in phosphate-buffered saline, read-out: Stability
[8] = Stability in 10% C57BL/6J mouse serum/phosphate-buffered saline assessed as residual parent compound remaining at 1 mM after 60 mins at 37 degC by HPLC method; assay type: ADME, cell-free; conditions: 10% mouse serum in phosphate-buffered saline, read-out: Stability
[9] = target: T3, Atrial natriuretic peptide receptor 3 (Mus musculus) (UniProt P70180); assay: Activity at NPR-3 in C57BL/6J mouse primary adipocytes assessed as increase in mANP-stimulated cGMP production at 1 uM pre-incubated for 30 mins before mANP stimulation for 15 mins by enzyme immunoassay; assay type: cell-based
T3 sequence (whole entry): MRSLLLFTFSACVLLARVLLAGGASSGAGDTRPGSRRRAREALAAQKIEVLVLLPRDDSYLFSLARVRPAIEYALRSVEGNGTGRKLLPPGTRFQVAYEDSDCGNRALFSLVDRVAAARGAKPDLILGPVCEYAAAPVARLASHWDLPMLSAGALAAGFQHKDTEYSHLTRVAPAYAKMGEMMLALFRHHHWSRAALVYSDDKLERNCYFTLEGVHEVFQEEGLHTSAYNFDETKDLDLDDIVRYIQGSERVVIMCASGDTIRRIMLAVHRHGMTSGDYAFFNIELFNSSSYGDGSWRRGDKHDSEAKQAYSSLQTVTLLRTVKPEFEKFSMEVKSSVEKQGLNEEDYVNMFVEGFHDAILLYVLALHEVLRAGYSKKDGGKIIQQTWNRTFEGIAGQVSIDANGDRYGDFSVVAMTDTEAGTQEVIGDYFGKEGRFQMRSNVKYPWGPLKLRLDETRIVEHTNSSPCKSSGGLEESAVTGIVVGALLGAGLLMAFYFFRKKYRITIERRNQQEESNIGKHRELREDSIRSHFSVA

[10] = Drug level in mouse blood at 300 nmol/kg/day dosed as continuous administration for 3 days; assay type: ADME, organism-based; conditions: whole blood, read-out: Drug uptake
[11] = Drug level in mouse blood at 1000 nmol/kg/day dosed as continuous administration for 3 days; assay type: ADME, organism-based; conditions: whole blood, read-out: Drug uptake
Mus musculus [12] = assay: Increase in cGMP production C57BL/6J mouse blood at 1 umol/kg/day, sc administered via infusion from implanted osmotic pumps for 7 days by enzyme immunoassay; assay type: functional, organism-based
Mus musculus [13] = assay: Increase in cGMP production C57BL/6J mouse blood at 1 umol/kg/day, sc administered via infusion from implanted osmotic pumps for 7 days and co-dosed with 1 umol/kg/day mANP by enzyme immunoassay; assay type: functional, organism-based

Row | Structure (SMILES) | IC50 [1] [nM] | IC50 [2] [nM] | remaining at 2 h, 1000 µM [3] [%] | remaining at 4 h, 1000 µM [4] [%] | Stability (Serum) | remaining at 0.5 h, 1000 µM [5] [%] | remaining at 1 h, 1000 µM [6] [%] | remaining at 0.5 h, 1000 µM [7] [%] | remaining at 1 h, 1000 µM [8] [%] | Activity [9] | concentration at 72 h [10] [nM] | concentration at 72 h [11] [nM] | Activity (Mus musculus [12]) | Activity (Mus musculus [13])
1 | CC[C@H](C)[C@H](NC(=O)[C@H](CCCNC(=N)NC)NC(=O)[C@H](CC(=O)O)NC(=O)[C@@H](NC(=O)[C@@H]1C[C@@H](O)CN1C(=O)CNC(=O)[C@@H](C)NC(=O)[C@H](CC1CCCCC1)NC(=O)[C@H]1C[C@H](O)CN1C(=O)[C@H](CO)NC(=O)[C@@H](Cc1ccccc1)NC(C)=O)[C@@H](C)CC)C(=O)NC | > 1000 | 0.099 | 100 | 102 | Stable | – | – | – | – | – | – | – | – | –
2 | CC[C@H](C)[C@H](NC(=O)[C@H](CCCNC(=N)N)NC(=O)[C@H](CC(=O)O)NC(=O)[C@@H](NC(=O)[C@@H]1CCCN1C(=O)CNC(=O)[C@@H](C)NC(=O)[C@H](CC1CCCCC1)NC(=O)[C@H]1CCCN1C(=O)[C@H](CO)NC(=O)[C@@H](Cc1ccccc1)NC(C)=O)[C@@H](C)CC)C(N)=O | > 1000 | 0.054 | – | – | – | 81 | 68 | – | – | – | – | – | – | –
3 | CC[C@H](C)[C@H](NC(=O)[C@H](CCCNC(=N)N)NC(=O)[C@H](CC(=O)O)NC(=O)[C@@H](NC(=O)[C@@H]1CCCN1C(=O)CNC(=O)[C@@H](C)NC(=O)[C@H](CC1CCCCC1)NC(=O)[C@H]1CCCN1C(=O)[C@H](CO)NC(=O)[C@@H](Cc1ccccc1)NC(C)=O)[C@@H](C)CC)C(=O)NC | > 1000 | 0.087 | – | – | – | 86 | 74 | – | – | – | – | – | – | –
4 | CC[C@H](C)[C@H](NC(=O)[C@H](CCCNC(=N)N)NC(=O)[C@H](CC(=O)O)NC(=O)[C@@H](NC(=O)[C@H](CCCNC(=N)N)NC(=O)CNC(=O)CNC(=O)[C@H](CC1CCCCC1)NC(=O)CNC(=O)[C@H](CO)NC(=O)[C@@H](N)Cc1ccccc1)[C@@H](C)CC)C(=O)NCC(N)=O | > 1000 | 1.2 | – | – | – | – | – | 1.4 | 0 | – | – | – | – | –
5 | CC[C@H](C)[C@H](NC(=O)[C@H](CCCNC(=N)N)NC(=O)[C@H](CC(=O)O)NC(=O)[C@@H](NC(=O)[C@H](CCCNC(=N)N)NC(=O)CNC(=O)CNC(=O)[C@H](CC1CCCCC1)NC(=O)CNC(=O)[C@H](CO)NC(=O)[C@H](Cc1ccccc1)NC(=O)[C@H](CO)NC(=O)[C@@H](N)CCCNC(=N)N)[C@@H](C)CC)C(=O)NCC(N)=O (H-RSFSG[Cha]GGRIDRIG-NH2) | > 1000 | 0.3 | – | – | – | – | – | 5 | 0 | – | – | – | – | –
6 | CC[C@H](C)[C@H](NC(=O)[C@H](CCCNC(=N)NC)NC(=O)[C@H](CC(=O)O)NC(=O)[C@@H](NC(=O)[C@@H]1C[C@@H](O)CN1C(=O)CNC(=O)[C@@H](CO)NC(=O)[C@H](CC1CCCCC1)NC(=O)[C@H]1C[C@H](O)CN1C(=O)[C@H](CO)NC(=O)[C@@H](Cc1ccccc1)NC(=O)CO)[C@@H](C)CC)C(=O)NC | > 1000 | 0.079 | 107 | 92 | – | – | – | – | – | Active | 10.1 | 40.5 | Active | Active
7 | CC[C@H](C)[C@H](NC(=O)[C@H](CCCNC(=N)N)NC(=O)[C@H](CC(=O)O)NC(=O)[C@@H](NC(=O)[C@H](CCCNC(=N)N)NC(=O)CNC(=O)CNC(=O)[C@H](CC1CCCCC1)NC(=O)[C@H]1CCCN1C(=O)[C@H](CO)NC(=O)[C@H](N)Cc1ccccc1)[C@@H](C)CC)C(=O)NCC(N)=O | > 1000 | 0.13 | – | – | – | – | – | 80 | 63 | – | – | – | – | –
8 | CC[C@H](C)[C@H](NC(=O)[C@H](CCCNC(=N)NC)NC(=O)[C@H](CC(=O)O)NC(=O)[C@@H](NC(=O)[C@@H]1CCCN1C(=O)CNC(=O)[C@@H](C)NC(=O)[C@H](CC1CCCCC1)NC(=O)[C@H]1CCCN1C(=O)[C@H](CO)NC(=O)[C@@H](Cc1ccccc1)NC(C)=O)[C@@H](C)CC)C(=O)NC | > 1000 | 0.14 | 77 | 62 | – | 91 | 84 | – | – | – | – | 13.7 | – | –
